# Source: the NIST ThermoML archive (doi:10.1016/j.fluid.2004.02.021)
# ± gives the expanded uncertainty stated by the source.
# Conditions: Liquid
Compound,vapor or sublimation pressure (283.15 K) [kPa],vapor or sublimation pressure (288.15 K) [kPa],vapor or sublimation pressure (293.15 K) [kPa],vapor or sublimation pressure (298.15 K) [kPa],vapor or sublimation pressure (303.15 K) [kPa],vapor or sublimation pressure (308.15 K) [kPa],vapor or sublimation pressure (313.15 K) [kPa],vapor or sublimation pressure (318.15 K) [kPa],vapor or sublimation pressure (323.15 K) [kPa]
c1ccccc1 [benzene],6.078 ± 0.045,7.849 ± 0.052,10.03 ± 0.061,12.69 ± 0.072,15.93 ± 0.085,19.81 ± 0.1,24.4 ± 0.12,29.85 ± 0.14,36.24 ± 0.17
ClC(Cl)=C(Cl)Cl [tetrachloroethene],1.023 ± 0.023,1.4 ± 0.026,1.861 ± 0.028,2.462 ± 0.03,3.205 ± 0.033,4.117 ± 0.037,5.253 ± 0.041,6.621 ± 0.047,8.286 ± 0.054
"ClC(Cl)C(Cl)Cl [1,1,2,2-tetrachloroethane]",0.263 ± 0.008,0.373 ± 0.01,0.521 ± 0.013,0.711 ± 0.017,0.98 ± 0.022,1.289 ± 0.028,1.701 ± 0.027,2.236 ± 0.029,2.86 ± 0.032
